Data from patent publication US20170190671A1, “BIS(ARYL)CATECHOL DERIVATIVES AS HERBICIDES” (E I DU PONT DE NEMOURS AND COMPANY, priority 2014, published 2017).

How the values were obtained:
Conditions in all cases: scale 0 to 100
[1] = tested on: wild oat (Avenafatua); assay: Test D preemergence; assay type: in vivo, Avena fatua
Source text: Seeds of plant species selected from bluegrass (annual bluegrass, Poa annua), blackgrass (Alopecurus myosuroides), canarygrass (Phalaris minor), chickweed (common chickweed, Stellaria media), cutleaf geranium (Geranium dissectum), galium (catchweed bedstraw, Galium aparine), downy bromegrass (Bromus tectorum), field poppy (Papaver rhoeas), field violet (Viola arvensis), green foxtail (Setaria viridis), deadnettle (henbit deadnettle, Lamium amplexicaule), Italian ryegrass (Lolium multiflorum), kochia (Kochia scoparia), lambsquarters (Chenopodium album), oilseed rape (Brassica napus), pigweed (Amaranthus retroflexus), chamomile (scentless chamomile, Matricaria inodora), Russian thistle (Salsola kali), speedwell (bird's-eye speedwell, Veronica persica), spring barley (Hordeum vulgare), spring wheat (Triticum aestivum), wild buckwheat (Polygonum convolvulus), wild mustard (Sinapis arvensis), wild oat (Avenafatua), wild radish (Raphanus raphanistrum), windgrass (Apera spica-venti), winter barley (Hordeum vulgare), and winter wheat (Triticum aestivum) were planted into a silt loam soil and treated preemergence with test chemicals formulated in a non-phytotoxic solvent mixture which included a surfactant.
At the same time, these species were planted in pots containing Redi-Earth® planting medium (Scotts Company, 14111 Scottslawn Road, Marysville, Ohio 43041) comprising spaghnum peat moss, vermiculite, wetting agent and starter nutrients and treated with postemergence applications of the test chemicals formulated in the same manner. Plants ranged in height from 2 to 18 cm (1- to 4-leaf stage). Treated plants and controls were maintained in a controlled growth environment for 14 to 21 days after which time all species were compared to controls and visually evaluated. Plant response ratings, summarized in Table D, are based on a scale of 0 to 100 where 0 is no effect and 100 is complete control. A dash (-) response means no test result.

[2] = tested on: Italian ryegrass (Lolium multiflorum); assay: Test D postemergence; assay type: in vivo
Outline: (§1)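 Seeds were sown in silt loam for preemergence treatment, or in peat/vermiculite medium for postemergence sprays at 2–18 cm (1- to 4-leaf stage). Test chemicals were in a non-phytotoxic solvent with surfactant. After 14–21 days in a controlled environment, plants were visually rated against controls on a 0–100 scale (0 no effect, 100 complete control).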

[3] = tested on: blackgrass (Alopecurus myosuroides); assay: Test D postemergence; assay type: in vivo
Outline: as §1

[4] = tested on: bluegrass (annual bluegrass, Poa annua); assay: Test D postemergence; assay type: in vivo
Outline: as §1

[5] = tested on: canarygrass (Phalaris minor); assay: Test D postemergence; assay type: in vivo
Outline: as §1

[6] = tested on: chickweed (common chickweed, Stellaria media); assay: Test D postemergence; assay type: in vivo
Outline: as §1

[7] = tested on: downy bromegrass (Bromus tectorum); assay: Test D postemergence; assay type: in vivo
Outline: as §1

[8] = tested on: field poppy (Papaver rhoeas); assay: Test D postemergence; assay type: in vivo
Outline: as §1

[9] = tested on: oilseed rape (Brassica napus); assay: Test D postemergence; assay type: in vivo
Outline: as §1

[10] = tested on: pigweed (Amaranthus retroflexus); assay: Test D postemergence; assay type: in vivo
Outline: as §1

[11] = tested on: wild buckwheat (Polygonum convolvulus); assay: Test D postemergence; assay type: in vivo
Outline: as §1

[12] = tested on: windgrass (Apera spica-venti); assay: Test D postemergence; assay type: in vivo
Outline: as §1

## Fc1cnc(Oc2c(Br)cccc2Oc2ncc(Cl)cn2)nc1 [Compound 22]
[1]; 16 g ai/ha
  Plant response rating, Oat, Wild: 5
[1]; 31 g ai/ha
  Plant response rating, Oat, Wild: 10
[1]; 62 g ai/ha
  Plant response rating, Oat, Wild: 20
[1]; 125 g ai/ha
  Plant response rating, Oat, Wild: 25
[2]; 16 g ai/ha
  Plant response rating, Ryegrass, Italian: 15
[2]; 31 g ai/ha
  Plant response rating, Ryegrass, Italian: 20
[2]; 62 g ai/ha
  Plant response rating, Ryegrass, Italian: 25
[2]; 125 g ai/ha
  Plant response rating, Ryegrass, Italian: 35
[3]; 16 g ai/ha
  Plant response rating, Blackgrass: 20
[3]; 31 g ai/ha
  Plant response rating, Blackgrass: 30
[3]; 62 g ai/ha
  Plant response rating, Blackgrass: 35
[3]; 125 g ai/ha
  Plant response rating, Blackgrass: 40
[4]; 16 g ai/ha
  Plant response rating, Bluegrass: 0
[4]; 31 g ai/ha
  Plant response rating, Bluegrass: 5
[4]; 62 g ai/ha
  Plant response rating, Bluegrass: 15
[4]; 125 g ai/ha
  Plant response rating, Bluegrass: 40
[5]; 16 g ai/ha
  Plant response rating, Canarygrass: 10
[5]; 31 g ai/ha
  Plant response rating, Canarygrass: 10
[5]; 62 g ai/ha
  Plant response rating, Canarygrass: 20
[5]; 125 g ai/ha
  Plant response rating, Canarygrass: 25
[6]; 16 g ai/ha
  Plant response rating, Chickweed: 30
[6]; 31 g ai/ha
  Plant response rating, Chickweed: 75
[6]; 62 g ai/ha
  Plant response rating, Chickweed: 75
[6]; 125 g ai/ha
  Plant response rating, Chickweed: 75
[7]; 16 g ai/ha
  Plant response rating, Bromegrass, Downy: 5
[7]; 31 g ai/ha
  Plant response rating, Bromegrass, Downy: 10
[7]; 62 g ai/ha
  Plant response rating, Bromegrass, Downy: 20
[7]; 125 g ai/ha
  Plant response rating, Bromegrass, Downy: 25
[8]; 16 g ai/ha
  Plant response rating, Field Poppy: 55
[8]; 31 g ai/ha
  Plant response rating, Field Poppy: 65
[8]; 62 g ai/ha
  Plant response rating, Field Poppy: 70
[8]; 125 g ai/ha
  Plant response rating, Field Poppy: 70
[9]; 16 g ai/ha
  Plant response rating, Oilseed Rape: 15
[9]; 31 g ai/ha
  Plant response rating, Oilseed Rape: 45
[9]; 62 g ai/ha
  Plant response rating, Oilseed Rape: 70
[9]; 125 g ai/ha
  Plant response rating, Oilseed Rape: 80
[10]; 16 g ai/ha
  Plant response rating, Pigweed: 75
[10]; 31 g ai/ha
  Plant response rating, Pigweed: 80
[10]; 62 g ai/ha
  Plant response rating, Pigweed: 75
[10]; 125 g ai/ha
  Plant response rating, Pigweed: 95
[11]; 16 g ai/ha
  Plant response rating, Buckwheat, Wild: 55
[11]; 31 g ai/ha
  Plant response rating, Buckwheat, Wild: 65
[11]; 62 g ai/ha
  Plant response rating, Buckwheat, Wild: 70
[11]; 125 g ai/ha
  Plant response rating, Buckwheat, Wild: 80
[12]; 16 g ai/ha
  Plant response rating, Windgrass: 5
[12]; 31 g ai/ha
  Plant response rating, Windgrass: 10
[12]; 62 g ai/ha
  Plant response rating, Windgrass: 25
[12]; 125 g ai/ha
  Plant response rating, Windgrass: 35
